In patent US20230159511A1, “TETRAHYDROISOQUINOLINE COMPOUNDS AS NRF2 ACTIVATORS” (C4X Discovery Limited, priority 2020, published 2023):

These compounds were tested against T1, human KEAP1 (N-term, residues 321-609) (Homo sapiens, UniProt Q14145) (assay: KEAP1 Kelch Fluorescence Polarization (FP) Assay). Conditions: inhibition of Kelch domain-NRF2 interaction; 2 nM FITC-labelled NRF2 peptide, 25 nM KEAP1, 1 h room temperature; compounds below 10 nM cannot be differentiated.
T1 construct: human KEAP1 (N-term, residues 321-609)
T1 sequence (Q14145 321-609): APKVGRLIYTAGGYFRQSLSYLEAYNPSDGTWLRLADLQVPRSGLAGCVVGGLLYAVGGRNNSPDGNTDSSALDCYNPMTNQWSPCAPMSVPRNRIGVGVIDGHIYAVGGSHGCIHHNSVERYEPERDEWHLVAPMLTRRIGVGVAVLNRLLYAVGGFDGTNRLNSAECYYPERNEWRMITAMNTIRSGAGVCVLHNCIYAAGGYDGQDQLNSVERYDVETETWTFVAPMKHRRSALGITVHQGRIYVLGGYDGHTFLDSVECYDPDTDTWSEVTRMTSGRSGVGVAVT
Assay type: binding
Protocol: KEAP1 Kelch Fluorescence Polarization (FP) Assay Method
Inhibition of the Kelch domain-NRF2 interaction was determined using a fluorescence polarization-based competition assay in a black 384-well microplate. Compounds were tested at a starting concentration of 10 μM serially diluted 1:3 to generate a 12-point dose response curve on the Biomek FX robot. Each well contained 2 nM FITC-labelled NRF2 peptide (FITC-LDEETGEFL-NH2) and 25 nM human KEAP1 (N-term, residues 321-609) enzyme in a final volume of 20 μL of assay buffer (50 mM Tris-HCl pH 8.0, 100 mM NaCl, 5 mM MgCl2, 0.005% Tween-20, 0.005% BSA, 0.5% DMSO) in the presence of varying concentrations of test compound. Unlabelled peptide (LDEETGEFL-NH2) at 50 μM (negative control) and 0.5% DMSO (positive control) was used to determine the assay window.
After 1 h at room temperature, fluorescence polarization (excitation 470 nm/emission 530 nm) was measured using an Envision plate reader. IC50 values were determined by fitting the data to a four parameter logistic fit using XLfit or XE Runner within ActivityBase. The assay limit is such that compounds below 10 nM cannot be differentiated.

Row | Structure (SMILES) | IC50 [nM]
1 | Cc1cc(C(=O)NCCOc2cccc3c2[C@@H](CN2C(=O)c4ccccc4C2=O)N(C(=O)[C@@H]2CCCC[C@@H]2C(=O)N2CC(O)C2)CC3)no1 [Example 8, N-(2-(((S)-1-((1,3-dioxoisoindolin-2-yl)methyl)-2-((1R,2S)-2-(3-hydroxyazetidine-1-carbonyl)cyclohexane-1-carbonyl)-1,2,3,4-tetrahydroisoquinolin-8-yl)oxy)ethyl)-5-methylisoxazole-3-carboxamide] | 1280
2 | CNC(=O)[C@H]1CCCC[C@H]1C(=O)N1CCc2cccc(O[C@H]3CCN(C(=O)c4cnc(C)s4)C3)c2[C@H]1CN1C(=O)c2ccccc2C1=O [Example 22, (1S,2R)-2-((S)-1-((1,3-dioxoisoindolin-2-yl)methyl)-8-(((S)-1-(2-methylthiazole-5-carbonyl)pyrrolidin-3-yl)oxy)-1,2,3,4-tetrahydroisoquinoline-2-carbonyl)-N-methylcyclohexane-1-carboxamide] | 32
3 | CNC(=O)[C@H]1CCCC[C@H]1C(=O)N1CCc2cccc(OCCNC(=O)c3noc(C)c3C)c2[C@H]1CN1C(=O)c2ccccc2C1=O [Example 4, N-(2-(((S)-1-((1,3-dioxoisoindolin-2-yl)methyl)-2-((1R,2S)-2-(methylcarbamoyl)cyclo-hexane-1-carbonyl)-1,2,3,4-tetrahydroisoquinolin-8-yl)oxy)ethyl)-4,5-dimethylisoxazole-3-carboxamide] | 161
4 | COCCNC(=O)[C@H]1CCCC[C@H]1C(=O)N1CCc2cccc(O[C@H]3CCN(C(=O)c4cncs4)C3)c2[C@H]1CN1C(=O)c2ccccc2C1=O [Example 30, (1S,2R)-2-((S)-1-((1,3-dioxoisoindolin-2-yl)methyl)-8-(((S)-1-(thiazole-5-carbonyl)pyrrolidin-3-yl)oxy)-1,2,3,4-tetrahydroisoquinoline-2-carbonyl)-N-(2-methoxyethyl)cyclo-hexane-1-carboxamide] | 215
5 | CNC(=O)[C@H]1CCCC[C@H]1C(=O)N1CCc2cccc(OCc3cnco3)c2[C@H]1CN1C(=O)c2ccccc2C1=O [Example 21, (1S,2R)-2-((S)-1-((1,3-dioxoisoindolin-2-yl)methyl)-8-(oxazol-5-ylmethoxy)-1,2,3,4-tetrahydroisoquinoline-2-carbonyl)-N-methylcyclohexane-1-carboxamide] | 2250
6 | CNC(=O)[C@H]1CCCC[C@H]1C(=O)N1CCc2cccc(O[C@H]3CCN(C(=O)c4cncs4)C3)c2[C@H]1CN1CCCC1=O [Example 26, (1S,2R)-N-methyl-2-((S)-1-((2-oxopyrrolidin-1-yl)methyl)-8-(((S)-1-(thiazole-5-carbonyl)pyrrolidin-3-yl)oxy)-1,2,3,4-tetrahydroisoquinoline-2-carbonyl)cyclohexane-1-carboxamide] | 61
7 | CNC(=O)[C@H]1CCCC[C@H]1C(=O)N1CCc2cccc(O[C@H]3CCN(C(=O)C4CC4)C3)c2[C@H]1CN1C(=O)c2ccccc2C1=O [Example 19, (1S,2R)-2-((S)-8-(((S)-1-(cyclopropanecarbonyl)pyrrolidin-3-yl)oxy)-1-((1,3-dioxoisoindolin-2-yl)methyl)-1,2,3,4-tetrahydroisoquinoline-2-carbonyl)-N-methylcyclohexane-1-carboxamide] | 196
8 | CNC(=O)[C@H]1CCCC[C@H]1C(=O)N1CCc2cccc(OCCNS(=O)(=O)c3cnoc3C)c2[C@H]1CN1C(=O)c2ccccc2C1=O [Example 13, (1S,2R)-2-((S)-1-((1,3-dioxoisoindolin-2-yl)methyl)-8-(2-((5-methylisoxazole)-4-sulfonamido)ethoxy)-1,2,3,4-tetrahydroisoquinoline-2-carbonyl)-N-methylcyclohexane-1-carboxamide] | 169
9 | CNC(=O)[C@H]1CCCC[C@H]1C(=O)N1CCc2cccc(OCc3cnccn3)c2[C@H]1CN1C(=O)c2ccccc2C1=O [Example 27, (1S,2R)-2-((S)-1-((1,3-dioxoisoindolin-2-yl)methyl)-8-(pyrazin-2-ylmethoxy)-1,2,3,4-tetrahydroisoquinoline-2-carbonyl)-N-methylcyclohexane-1-carboxamide] | 565

Second part, the compound after the results:

Row | IC50 [nM] | Structure (SMILES)
10 | 539 | O=C(NCC(F)F)[C@H]1CCCC[C@H]1C(=O)N1CCc2cccc(O[C@H]3CCN(C(=O)c4cncs4)C3)c2[C@H]1CN1C(=O)c2ccccc2C1=O [Example 31, (1S,2R)-N-(2,2-difluoroethyl)-2-((S)-1-((1,3-dioxoisoindolin-2-yl)methyl)-8-(((S)-1-(thiazole-5-carbonyl)pyrrolidin-3-yl)oxy)-1,2,3,4-tetrahydroisoquinoline-2-carbonyl)cyclohexane-1-carboxamide]
11 | 1170 | CNC(=O)[C@H]1CCCC[C@H]1C(=O)N1CCc2cccc(O[C@H]3CCN(C(=O)c4cncs4)C3)c2[C@H]1CNC(C)=O [Example 44]
12 | 186 | O=C(NCCCO)[C@H]1CCCC[C@H]1C(=O)N1CCc2cccc(O[C@H]3CCN(C(=O)c4cncs4)C3)c2[C@H]1CN1C(=O)c2ccccc2C1=O [Example 43, (1S,2R)-2-((S)-1-((1,3-dioxoisoindolin-2-yl)methyl)-8-(((S)-1-(thiazole-5-carbonyl)pyrrolidin-3-yl)oxy)-1,2,3,4-tetrahydroisoquinoline-2-carbonyl)-N-(3-hydroxypropyl)cyclohexane-1-carboxamide]
13 | 1510 | N#CCNC(=O)[C@H]1CCCC[C@H]1C(=O)N1CCc2cccc(O[C@H]3CCN(C(=O)c4cncs4)C3)c2[C@H]1CN1C(=O)c2ccccc2C1=O [Example 33, (1S,2R)-N-(cyanomethyl)-2-((S)-1-((1,3-dioxoisoindolin-2-yl)methyl)-8-(((S)-1-(thiazole-5-carbonyl)pyrrolidin-3-yl)oxy)-1,2,3,4-tetrahydroisoquinoline-2-carbonyl)cyclohexane-1-carboxamide]
14 | 44 | CNC(=O)[C@H]1CCCC[C@H]1C(=O)N1CCc2c(Cl)ccc(O[C@H]3CCN(C(C)=O)C3)c2[C@H]1CN1C(=O)c2ccccc2C1=O [Example 37, (1S,2R)-2-((S)-8-(((S)-1-acetylpyrrolidin-3-yl)oxy)-5-chloro-1-((1,3-dioxoisoindolin-2-yl)methyl)-1,2,3,4-tetrahydroisoquinoline-2-carbonyl)-N-methylcyclohexane-1-carboxamide]
15 | 126 | CNC(=O)N[C@@H](C)C(=O)N1CCc2cccc(O[C@H]3CCN(C(=O)c4cncs4)C3)c2[C@H]1CN1C(=O)c2ccccc2C1=O [Example 36, 1-((S)-1-((S)-1-((1,3-dioxoisoindolin-2-yl)methyl)-8-(((S)-1-(thiazole-5-carbonyl)pyrrolidin-3-yl)oxy)-3,4-dihydroisoquinolin-2(1H)-yl)-1-oxopropan-2-yl)-3-methylurea]
16 | 83 | CNC(=O)[C@H]1CCCC[C@H]1C(=O)N1CCc2cccc(OCCCC(=O)O)c2[C@H]1CN1C(=O)c2ccccc2C1=O [Example 46, 4-(((S)-1-((1,3-dioxoisoindolin-2-yl)methyl)-24(1 R,2S)-2-(methylcarbamoyncyclohexane-1-carbonyl)-1,2,3,4-tetrahydroisoquinolin-8-yl)oxy)butanoic acid]
17 | 1700 | COC(=O)N1CCC[C@H]1C(=O)N1CCc2cccc(O[C@H]3CCN(C(=O)c4cncs4)C3)c2[C@H]1CN1C(=O)c2ccccc2C1=O [Example 51, methyl (S)-2-((S)-1-((1,3-dioxoisoindolin-2-yl)methyl)-8-(((S)-1-(thiazole-5-carbonyl)pyrrolidin-3-yl)oxy)-1,2,3,4-tetrahydroisoquinoline-2-carbonyl)pyrrolidine-1-carboxylate]
